Paper PMC9120017, “Inhibition mechanism of the chloride channel TMEM16A by the pore blocker 1PBC” (Nature Communications, 2022)
Where two headings read alike, the source gives them in different places.

Biological target: T1, mouse TMEM16A mutant I512A (Mus musculus, UniProt Q8BHY3, I512A)
T1 construct: expressed in transfected cells; host or cells: HEK293T
T1 sequence (Q8BHY3 1-960 I512A): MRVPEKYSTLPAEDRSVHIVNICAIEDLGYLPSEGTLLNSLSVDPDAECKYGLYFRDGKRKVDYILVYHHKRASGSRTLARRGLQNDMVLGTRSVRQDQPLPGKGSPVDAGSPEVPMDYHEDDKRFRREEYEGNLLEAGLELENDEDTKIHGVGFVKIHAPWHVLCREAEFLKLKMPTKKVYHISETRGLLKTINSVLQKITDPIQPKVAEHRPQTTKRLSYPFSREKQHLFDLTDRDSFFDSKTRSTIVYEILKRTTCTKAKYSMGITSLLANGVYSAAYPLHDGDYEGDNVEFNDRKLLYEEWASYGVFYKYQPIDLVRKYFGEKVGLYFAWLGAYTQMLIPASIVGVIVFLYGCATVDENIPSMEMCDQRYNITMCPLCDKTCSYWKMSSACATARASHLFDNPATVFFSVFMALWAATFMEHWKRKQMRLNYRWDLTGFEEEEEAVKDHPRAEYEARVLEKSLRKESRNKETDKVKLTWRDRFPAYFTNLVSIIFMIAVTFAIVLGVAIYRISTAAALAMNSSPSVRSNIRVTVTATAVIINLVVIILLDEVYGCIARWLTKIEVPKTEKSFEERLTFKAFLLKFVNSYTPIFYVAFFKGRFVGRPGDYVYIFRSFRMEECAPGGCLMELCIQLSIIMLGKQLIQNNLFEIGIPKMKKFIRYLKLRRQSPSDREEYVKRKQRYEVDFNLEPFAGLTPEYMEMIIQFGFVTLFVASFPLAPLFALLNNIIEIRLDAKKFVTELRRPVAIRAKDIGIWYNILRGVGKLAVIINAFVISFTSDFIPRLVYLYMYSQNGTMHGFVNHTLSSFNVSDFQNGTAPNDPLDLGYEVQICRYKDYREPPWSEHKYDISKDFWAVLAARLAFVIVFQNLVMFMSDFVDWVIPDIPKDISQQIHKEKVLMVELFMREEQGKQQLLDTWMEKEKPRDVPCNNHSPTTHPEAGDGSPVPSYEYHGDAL
Test: Inside-out patch recording of 1PBC block, mutant I512A
Assay type: cell-based
Conditions: for remaining activity at 30 µM: 1PBC 30; for remaining activity at 30 µM / remaining activity at 100 µM: read-out: fraction of unblocked current; for remaining activity at 100 µM: 1PBC 100
Protocol: HEK293T cells (ATCC CRL-1573) were maintained in Dulbecco’s modified Eagle’s medium (DMEM; Sigma-Aldrich) supplemented with 10 U ml^−1 penicillin, 0.1 mg ml^−1 streptomycin (Sigma-Aldrich), 2 mM L-glutamine (Sigma-Aldrich), and 10% FBS (Sigma-Aldrich) in a humidified atmosphere containing 5% CO2 at 37 °C. HEK293S GnTI^− cells (ATCC CRL-3022) were maintained in HyClone HyCell TransFx-H medium (GE Healthcare) supplemented with 10 U ml^−1 penicillin, 0.1 mg ml^−1 streptomycin, 4 mM L-glutamine, 0.15% poloxamer 188 (Sigma-Aldrich), and 1% FBS in an atmosphere containing 5% CO2 at 185 rpm at 37 °C. The ac splice variant of mouse TMEM16A (UniProt ID: Q8BHY3), mouse TMEM16B (UniProt ID: Q8CFW1), or mouse TMEM16F (UniProt ID: Q6P9J9) bearing a 3C cleavage site, a Venus YFP, a Myc tag, and a Streptavidin-binding peptide (SBP) downstream of the open reading frame in a modified pcDNA3.1 vector (Invitrogen) were used as described previously[21],[31]. Mutations were introduced using a modified QuikChange method[58] and were verified by sequencing.
HEK293T cells were transfected with 3–4 μg DNA per 6 cm Petri dish using the calcium phosphate co-precipitation method and were used within 24–96 h after transfection. Recordings were performed on inside-out patches excised from HEK293T cells expressing the construct of interest. Patch pipettes were pulled from borosilicate glass capillaries (O.D. 1.5 mm, I.D. 0.86 mm, Sutter Instrument) and were fire-polished with a microforge (Narishige) before use. Pipette resistance was typically 3–8 MΩ when filled with the recording solutions detailed below. Seal resistance was typically 4 GΩ or higher. Voltage-clamp recordings were made using Axopatch 200B, Digidata 1550, and Clampex 10.7 (Molecular Devices). Analog signals were filtered with the in-built 4-pole Bessel filter at 10 kHz and were digitized at 20 kHz. Solution exchange was achieved using a gravity-fed system through a theta glass pipette mounted on an ultra-fast piezo-driven stepper (Siskiyou). […] All recordings were performed at 20 °C.
A symmetrical ionic condition was used throughout. Stock solution with Ca^2+-EGTA contained 150 mM NaCl, 5.99 mM Ca(OH)2, 5 mM EGTA, and 10 mM HEPES at pH 7.40. Stock solution with EGTA contained 150 mM NaCl, 5 mM EGTA, and 10 mM HEPES at pH 7.40. Free Ca^2+ concentrations were adjusted by mixing the stock solutions at the required ratios calculated using the WEBMAXC program (http://web.stanford.edu/~cpatton/webmaxcS.htm). Patch pipettes were filled with the stock solution with Ca^2+-EGTA, which has a free Ca^2+ concentration of 1 mM. 1PBC (ChemBridge) stock was reconstituted in anhydrous DMSO (Sigma-Aldrich) at 100 mM and stored at −20 °C. Working solutions with 1PBC were prepared by serial dilution. Unless otherwise stated, experiments were performed at a saturating Ca^2+ concentration as shown in Supplementary Table 1 and the primary data were corrected for current rundown as described previously[21],[25].
Concentration-response relations, obtained from the ratio of the I-V plots before and after the application of the blocker, were fitted to the Hill equation,1 I/Imax=1/1+IC50/[blocker]^h where I/Imax is the normalized current responses, IC50 defines the concentration at which inhibition is at its half-maximum, and h is the Hill coefficient.

- remaining activity at 30 µM (-60 mV): 62.3%
- remaining activity at 30 µM (-80 mV): 65.6%
- remaining activity at 30 µM (-100 mV): 68.2%
- remaining activity at 30 µM (-120 mV): 70.8%
- remaining activity at 30 µM (-140 mV): 72%
- remaining activity at 100 µM (0 mV): 23.3%
- remaining activity at 100 µM (20 mV): 19.1%
- remaining activity at 100 µM (40 mV): 18.1%
- remaining activity at 100 µM (60 mV): 15.6%
- remaining activity at 100 µM (80 mV): 14%
- remaining activity at 100 µM (100 mV): 13.1%
- remaining activity at 100 µM (120 mV): 12.2%
- remaining activity at 100 µM (140 mV): 12.1%
- remaining activity at 100 µM (-20 mV): 27.5%
- remaining activity at 100 µM (-40 mV): 29.4%
- remaining activity at 100 µM (-60 mV): 32.8%
- remaining activity at 100 µM (-80 mV): 36%
- remaining activity at 100 µM (-100 mV): 39.7%
- remaining activity at 100 µM (-120 mV): 42.4%
- remaining activity at 100 µM (-140 mV): 45.3%
- IC50 (20 mV, 2 µM Ca2+): 25.5 µM
- IC50 (40 mV, 2 µM Ca2+): 21.8 µM
- IC50 (60 mV, 2 µM Ca2+): 19 µM
- log-fold IC50 (change of mutant vs WT) (80 mV): 0.8662
- IC50 (80 mV, 2 µM Ca2+): 17 µM
- IC50 (100 mV, 2 µM Ca2+): 15.9 µM
- IC50 (120 mV, 2 µM Ca2+): 15.8 µM
- IC50 (140 mV, 2 µM Ca2+): 16.6 µM
- IC50 (-20 mV, 2 µM Ca2+): 37.1 µM
- IC50 (-40 mV, 2 µM Ca2+): 42.9 µM
- IC50 (-60 mV, 2 µM Ca2+): 50.1 µM
- IC50 (-80 mV, 2 µM Ca2+): 57.9 µM
- IC50 (-100 mV, 2 µM Ca2+): 66.1 µM
- IC50 (-120 mV, 2 µM Ca2+): 73.6 µM
- IC50 (-140 mV, 2 µM Ca2+): 80.9 µM
- IC50 (I512A, V 0 mV): 30.7 µM
- IC50 (I512A, V 20 mV): 25.5 µM
- IC50 (I512A, V 40 mV): 21.8 µM
- IC50 (I512A, V 60 mV): 19 µM
- IC50 (I512A, V 80 mV): 17 µM
- IC50 (I512A, V 100 mV): 15.9 µM
- IC50 (I512A, V 120 mV): 15.8 µM
- IC50 (I512A, V 140 mV): 16.6 µM
- IC50 (I512A, V -20 mV): 37.1 µM
- IC50 (I512A, V -40 mV): 42.9 µM
- IC50 (I512A, V -60 mV): 50.1 µM
- IC50 (I512A, V -80 mV): 57.9 µM
- IC50 (I512A, V -100 mV): 66.1 µM
- IC50 (I512A, V -120 mV): 73.6 µM
- IC50 (I512A, V -140 mV): 80.9 µM
Structure (SMILES): N#Cc1c(C(F)(F)F)cc(O)n2c1nc1ccccc12 [1PBC]
